Assay results from US20250084128A1, “ANTIVIRAL […]-STAPLED SARS-CoV-2 PEPTIDE-C[…] USES THEREOF” (priority 2021, published 2025).
Entries after “also recorded” stand apart in the source; their conditions may differ.

Experiments:
Assay type in all cases: cell-based
live SARS-CoV-2 virus = tested on: live SARS-CoV-2 virus
[1] = tested on: pseudotyped SARS-CoV-2 virus
[2] = tested on: GFP-expressing SARS-CoV-1 (Urbani) pseudovirus

Substance: DISGINASVVNIQKEIDR8NEVAKNXNESLIDLQELGK [SEQ ID NO: 15]
- differential antiviral activity (live SARS-CoV-2 virus): little to no activity

Substance: DISGINASVVNIQK8IDRLNEXAKNLNESLIDLQELGK [SEQ ID NO: 11]
- differential antiviral activity (live SARS-CoV-2 virus): little to no activity

Substance: DISGINASVVNIQKEI8RLNEVAXNLNESLIDLQELGK [SEQ ID NO: 13]
- antiviral activity [1]: consistent antiviral activity
- antiviral activity (live SARS-CoV-2 virus): consistent antiviral activity
- antiviral activity, i, i+7 staple scan (live SARS-CoV-2 virus): potent anti-viral activity; also recorded: among the most potent antiviral activity; also recorded: uniquely potent
- differential antiviral activity (live SARS-CoV-2 virus): moderate activity
- antiviral activity [2]: consistent antiviral activity

Substance: DISGINASVVNIQKEID8LNEVAKXLNESLIDLQELGK [SEQ ID NO: 14]
- differential antiviral activity (live SARS-CoV-2 virus): little to no activity

Substance: DISGINASVVNIQKEIDRL8EVAKNLXESLIDLQELGK [SEQ ID NO: 16]
- differential antiviral activity (live SARS-CoV-2 virus): moderate activity
